# Reference: patent EP2057185B1, “POLYMYXIN DERIVATIVES AND USES THEREOF” (Northern Antibiotics Oy, priority 2006, dated 2008)
# Bridge positions count the residues as written; N and C are the ends. Square brackets hold non-standard residues; d marks the D form. Peptide text beside a SMILES is read from it. * marks the point of attachment. Octanoyl = CCCCCCCC(=O)*; Dab = NCC[C@H](N)C(=O)O; Abu = CC[C@H](N)C(=O)O
# Columns and labels:
# E. coli IH3080 [1] = assay: Growth inhibition around wells on LB agar plates; assay type: cell-based, Escherichia coli; details: 18 h at 37°C; for Antibacterial activity at 4 µg: growth inhibition area around a well containing 4 µg of compound; for Antibacterial activity at 10 µg: growth inhibition area around a well containing 10 µg of compound
# Experimental: Peptides synthesized in Example 1, all carrying at least two (2) but not more than three (3) positive charges, were studied for their ability to inhibit the growth of E. coli. This was tested employing LB agar (LB Agar Lennox, Difco, BD, Sparks, MD, U.S.A) plates. The indicator organism E. coli IH3080 (K1:O18) was an encapsulated strain originally isolated from a neonate suffering from meningitis (Vaara et al. 1984) and obtained from National Public Health Institute, Helsinki, Finland.
# (§1) From an overnight-grown culture of IH3080 on LB agar, a suspension of approx. 10^8 cells/ml was prepared in 0.9% NaCl. Aliquots of this suspension were then pipetted on the agar plates and the plates were gently shaken to spread the suspension evenly on the entire surface of the plate. Thereafter, the unabsorbed part of the suspension was removed by using a Pasteur pipette. After the surface had dried, small wells (diameter, 2 mm) were drilled on the plates (five wells per plate) by using a sterile sharp-edged narrow metal tube, single-use pipette tip, and vacuum suction. […] Controls included 0.9% NaCl solution without the compound to be tested. The plates were then incubated for 18 h at 37°C whereafter the diameters of growth inhibition zones around each well were measured; the diameter of the well itself was […]. Finally, the diameters were converted to surface areas of growth inhibition (in square mm).
# A. baumannii ATCC 19606 = assay: Growth inhibition around wells on LB agar plates; assay type: cell-based, Acinetobacter baumannii; details: for Antibacterial activity 4 µg: growth inhibition area around a well containing 4 µg; for Antibacterial activity 10 µg: growth inhibition area around a well containing 10 µg
# Experimental: (§2) From an overnight-grown culture of IH3080 on LB agar, a suspension of approx. 10^8 cells/ml was prepared in 0.9% NaCl. Aliquots of this suspension were then pipetted on the agar plates and the plates were gently shaken to spread the suspension evenly on the entire surface of the plate. Thereafter, the unabsorbed part of the suspension was removed by using a Pasteur pipette. After the surface had dried, small wells (diameter, 2 mm) were drilled on the plates (five wells per plate) by using a sterile sharp-edged narrow metal tube, single-use pipette tip, and vacuum suction. Samples (4 µl and 10 µl) of the peptide solution in 0.9% NaCl (at concentrations of 1 µg/ml and 0.1 µg/ml) were then pipetted to the wells and the sample fluids were allowed to absorb. Controls included 0.9% NaCl solution without the compound to be tested. The plates were then incubated for 18 h at 37°C whereafter the diameters of growth inhibition zones around each well were measured; the diameter of the well itself was […]. Finally, the diameters were converted to surface areas of growth inhibition (in square mm).
# (§3) Direct antibacterial activity of twelve NAB compounds against Acinetobacter baumannii ATCC 19606 and Pseudomonas aeruginosa ATCC 27853 was tested by using the susceptibility determination method described in Example 2. Five compounds (NAB7062, NAB734, NAB737, NAB739, and NAB740) had notable activity against A. baumannii. […] The antibacterial activity of NAB739 and NAB740 were as strong as or even stronger than that of polymyxin B.
# [2] = test system: Ps. aeruginosa ATCC 27853; assay: Growth inhibition around wells on LB agar plates; assay type: cell-based, Pseudomonas aeruginosa; details: for Antibacterial activity 4 µg: growth inhibition area around a well containing 4 µg; for Antibacterial activity 10 µg: growth inhibition area around a well containing 10 µg
# Experimental: as §2, §3
# E. coli IH3080 [3] = assay: Growth inhibition around wells on LB plates containing rifampin (sensitization); assay type: cell-based, Escherichia coli; details: well containing 4 µg of compound; for Antibacterial activity in the presence of rifampin concn (µg/ml) of 0: plates with no rifampin; for Antibacterial activity in the presence of rifampin concn (µg/ml) of 0.1: rifampin 0.1 µg/ml; for Antibacterial activity in the presence of rifampin concn (µg/ml) of 1.0: rifampin 1.0 µg/ml
# Experimental: as §1, with “mm). […] Louis, MO, U.S.A).” for “mm).”
# E. cloacae ATCC23355 = test system: E. cloacae ATCC23355
# Experimental: (§4) MICs were determined by using E-strips (Biodisk Ltd., Solna, Sweden) according to the manufacturer's instructions.
# (§5) The strains originated from ATCC (11 strains), CCUG (11 strains), and NCTC (The National Collection of Type Cultures, Colindale, U.K.; 2 strains). Eight strains (the F-strains) were purchased from Mobidiag Ltd., Helsinki, Finland.
# E. coli IH3080 [4] = test system: E. coli IH3080
# Experimental: as §4, §5
# K. pneumoniae ATCC13883 = test system: K. pneumoniae ATCC13883
# Experimental: as §4, §5
# [5] = Two-week intravenous toxicity study in young rats; assay type: in vivo; details: for rise of blood urea nitrogen (BUN) over control or low dose group: 16 mg/kg/day
# Experimental: Toxicity in young rats (weighing approx. 150 g in the beginning of the study) was determined by administering doses (1, 2, 4, 8, 16, and 32 mg/kg per day) of NAB7061 as well as the control compound polymyxin B intravenously twice (2) a day for two weeks. A group of ten (10) rats was studied for each dosis regimen. Clinical observations were made daily, the body weight measured twice weekly, and the food consumption twice weekly. In the end of week 2, all animals were sacrificed.
# Histopathology of kidneys was performed for each animals and histopathology of all tissues was performed in three high-dose groups receiving NAB7061.
# S. marcescens ATCC8100 = assay: Growth inhibition around wells on LB agar plates; assay type: cell-based, Serratia marcescens; details: growth inhibition area around well
# Experimental: as §2
# The susceptibility of eleven Gram-negative bacterial strains (nine different species) to NAB734 and polymyxin B was compared by using the susceptibility determination method described in Example 2. […]
# [6] = E. cloacae ATCC23355, 4 µg/ml of NAB 7061
# [7] = E. coli IH3080, 4 µg/ml of NAB 7061
# [8] = K. pneumoniae ATCC1 3883, 4 µg/ml of NAB 7061
molecule,measurement,setting,value
"CCCCCCCC(=O)N[C@H](C(=O)N[C@@H](CC)C(=O)N[C@H]1CCNC(=O)[C@H]([C@@H](C)O)NC(=O)[C@H](CCN)NC(=O)[C@H](CCN)NC(=O)[C@H](CC(C)C)NC(=O)[C@@H](Cc2ccccc2)NC(=O)[C@H](CCN)NC1=O)[C@@H](C)O [NAB 7061, OA-Thr-Abu-cy[Dab-Dab-DPhe-Leu-Dab-Dab-Thr-]] (Octanoyl-T[Abu][Dab][Dab][dF]L[Dab][Dab]T; lactam 3-C)",Antibacterial activity at 4 µg,E. coli IH3080 [1],0 square millimeters
same,Antibacterial activity at 10 µg,E. coli IH3080 [1],50 square millimeters
same,Antibacterial activity 4 µg,A. baumannii ATCC 19606,0 square millimeters
same,Antibacterial activity 10 µg,A. baumannii ATCC 19606,0 square millimeters
same,Antibacterial activity 4 µg,[2],0 square millimeters
same,Antibacterial activity 10 µg,[2],0 square millimeters
same,Antibacterial activity in the presence of rifampin concn (µg/ml) of 0,E. coli IH3080 [3],0 square millimeters
same,Antibacterial activity in the presence of rifampin concn (µg/ml) of 1.0,E. coli IH3080 [3],155 square millimeters
same,MIC (µg/ml) of clarithromycin in the presence of 4 µg/ml of NAB 7061,E. cloacae ATCC23355; E. cloacae ATCC23355,"0,25 - 0,75 µg/ml"
same,MIC (µg/ml) of rifampin in the presence of 4 µg/ml of NAB 7061,E. cloacae ATCC23355; E. cloacae ATCC23355,"0,008 - 0,016 µg/ml"
same,rise of blood urea nitrogen (BUN) over control or low dose group,"[5]; rat, in vivo",no such a rise was found
same,general pathology and histopathology of organs and kidneys,"[5]; rat, in vivo, iv",No NAB7061-related pathological findings
same,lowest dose that negatively influenced the body weight gain,"[5]; rat, in vivo, iv",8 mg/kg
same,rise of blood urea nitrogen (BUN),"[5]; rats, 32 mg/kg per day, end of the study",7%
same,survival,"[5]; rats, 1 to 32 mg/kg per day intravenously, two weeks",all rats receiving NAB7061 remained alive throughout the study
Polymyxin B,Antibacterial activity at 4 µg,E. coli IH3080 [1],79 square millimeters
same,Antibacterial activity at 4 µg,E. coli IH3080 [1]; listed as Polymyxin B sulfate,95 square millimeters
same,Antibacterial activity at 10 µg,E. coli IH3080 [1],133 square millimeters
same,Antibacterial activity 4 µg,A. baumannii ATCC 19606,113 square millimeters
same,Antibacterial activity 10 µg,A. baumannii ATCC 19606,154 square millimeters
same,Antibacterial activity 4 µg,[2],95 square millimeters
same,Antibacterial activity 10 µg,[2],133 square millimeters
same,Antibacterial activity 4 µg,S. marcescens ATCC8100; 4 µg,0 square millimeters
same,Antibacterial activity 10 µg,S. marcescens ATCC8100; 10 µg,0 square millimeters
same,Antibacterial activity in the presence of rifampin concn (µg/ml) of 0,E. coli IH3080 [3],79 square millimeters
same,Antibacterial activity in the presence of rifampin concn (µg/ml) of 0.1,E. coli IH3080 [3],95 square millimeters
same,Antibacterial activity in the presence of rifampin concn (µg/ml) of 1.0,E. coli IH3080 [3],104 square millimeters
same,Sensitization factor,"E. cloacae ATCC23355; ratio of the MIC of the antibiotic in the absence of NAB 7061 to that in the presence of 4 µg/ml of NAB 7061, E. cloacae ATCC 23355",4
same,Sensitization factor,"E. coli IH3080 [4]; ratio of the MIC of the antibiotic in the absence of NAB 7061 to that in the presence of 4 µg/ml of NAB 7061, E. coli IH 3080",2
same,Sensitization factor,"K. pneumoniae ATCC13883; ratio of the MIC of the antibiotic in the absence of NAB 7061 to that in the presence of 4 µg/ml of NAB 7061, K. pneum. ATCC 13883",1
same,rise of blood urea nitrogen (BUN) over control or low dose group,"[5]; rat, in vivo",15%
same,mortality,"[5]; rats, 32 mg/kg per day intravenously, two weeks",100%
